Results on 43 compounds are retold here after patent US11267811B2, “Small molecule inhibitors of galectin-3” (BRISTOL-MYERS SQUIBB COMPANY, priority 2017, dated 2022).

One assay deals with His-tagged recombinant human Gal-3 (hGal-3) (Homo sapiens (Human), UniProt P17931). Put plainly: Gal-3 HTRF assay (His-tagged hGal-3 binding to B-ASF).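 Also: compounds preincubated 30 min with hGal-3, then 1 h with B-ASF, detection via terbium anti-His antibody and streptavidin d2. Control with B-ASF counts as full signal, omitting B-ASF as background.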 Particulars: HTRF, hGal-3 15 nM, B-ASF 15 nM; read-out: hGal-3 IC50. (In TR-FRET formats the signal depends on donor and acceptor labels being close together.)
Sequence of His-tagged recombinant human Gal-3 (hGal-3) (P17931 whole entry): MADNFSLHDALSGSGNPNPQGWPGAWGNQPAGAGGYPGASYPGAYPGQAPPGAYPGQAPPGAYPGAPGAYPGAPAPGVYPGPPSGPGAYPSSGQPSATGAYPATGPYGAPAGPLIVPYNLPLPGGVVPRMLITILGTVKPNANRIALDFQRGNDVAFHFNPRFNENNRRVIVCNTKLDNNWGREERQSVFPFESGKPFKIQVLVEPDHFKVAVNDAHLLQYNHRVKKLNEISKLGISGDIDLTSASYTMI
For `O=C(O)CO[C@@H]1[C@@H](n2cc(-c3cc(F)c(F)c(F)c3)nn2)[C@@H](O)[C@@H](CO)O[C@H]1c1ncnn1-c1cccc(Cl)c1` [Example 53, 2-(((2S,3R,4S,5R,6R)-2-(1-(3-chlorophenyl)-1H-1,2,4-triazol-5-yl)-5-hydroxy-6-(hydroxymethyl)-4-(4-(3,4,5-trifluorophenyl)-1H-1,2,3-triazol-1-yl)tetrahydro-2H-pyran-3-yl)oxy)acetic acid], the IC50 (usually the concentration that inhibits the measured activity by half) was found to be 0.023 µM. Still for that read-out and setting: for `O=C(O)CO[C@@H]1[C@@H](n2cc(-c3cc(F)c(F)c(F)c3)nn2)[C@@H](O)[C@@H](CO)O[C@H]1n1nncc1-c1cccc(Cl)c1` [Example 14] the value was 8.43 µM.

On to `OC[C@H]1O[C@@H](c2nncn2-c2ccc(F)cc2)[C@H](O)[C@@H](n2cc(-c3cc(F)c(F)c(F)c3)nn2)[C@H]1O` [Example 85], for which the IC50 was 0.44 µM.

With `NC(=O)c1cccc(-n2ncnc2[C@H]2C[C@@H](n3cc(-c4cc(F)c(F)c(F)c4)nn3)[C@@H](O)[C@@H](CO)O2)c1` [Example 175], the IC50 was 0.65 µM.

Consider `CC(=O)Nc1cccc(-n2cnnc2[C@@H]2O[C@H](CO)[C@H](O)[C@H](n3cc(-c4cc(F)c(F)c(F)c4)nn3)[C@H]2O)c1` [Example 84], for which the IC50 is 0.9 µM. Same read-out and setting: for `Cc1ncc(Cl)cc1-n1cnnc1[C@@H]1O[C@H](CO)[C@H](O)[C@H](n2cc(-c3cc(F)c(F)c(F)c3)nn2)[C@H]1O` [Example 138] the value was 0.04 µM.

For `Cc1nc([C@H]2C[C@@H](n3cc(-c4cc(F)c(F)c(F)c4)nn3)[C@@H](O)[C@@H](CO)O2)n(-c2ccc3ncsc3c2)n1` [Example 186], the IC50 came to 0.05 µM. On to `OC[C@H]1O[C@@H](c2ncnn2-c2ccccc2F)[C@H](O)[C@@H](n2cc(-c3cc(F)c(F)c(F)c3)nn2)[C@H]1O` [Example 40], for which the IC50 amounted to 1.02 µM.

Turning to `CCc1nc([C@@H]2O[C@H](CO)[C@H](O)[C@H](n3cc(-c4cc(F)c(F)c(F)c4)nn3)[C@H]2O)n(-c2ccc3nc(C)sc3c2)n1` [Example 267], the IC50 was 0.06 µM. `Cc1nc([C@@H]2O[C@H](CO)[C@H](O)[C@H](n3cc(-c4cc(F)c(F)c(F)c4)nn3)[C@H]2O)n(-c2cc(Cl)c(Cl)cc2C)n1` [Example 69]: the IC50 amounted to 0.06 µM. As for `OC[C@H]1O[C@@H](c2nncn2-c2ccc3nccnc3c2)[C@H](O)[C@@H](n2cc(-c3cc(F)c(F)c(F)c3)nn2)[C@H]1O` [Example 124], the IC50 came out at 0.4 µM. For `COc1cccc(-n2ncnc2[C@@H]2O[C@H](CO)[C@H](O)[C@H](n3cc(-c4cc(F)c(F)c(F)c4)nn3)[C@H]2O)c1` [Example 23], the IC50 turned out to be 0.15 µM. On the same count and under the same terms, for `OC[C@H]1O[C@@H](c2nncn2-c2cc(F)cc(Cl)c2)[C@H](O)[C@@H](n2cc(-c3cc(F)c(F)c(F)c3)nn2)[C@H]1O` [Example 140] the value was 0.13 µM; for `Cc1nc2cc(-n3cnnc3[C@@H]3O[C@H](CO)[C@H](O)[C@H](n4cc(-c5cc(F)c(F)c(F)c5)nn4)[C@H]3O)ccc2s1` [Example 143], 0.41 µM; for `Cc1nc2ccc(-n3ncnc3[C@@H]3O[C@H](CO)[C@H](O)[C@H](n4cc(C(=O)NC5CCC5)nn4)[C@H]3O)cc2s1` [Example 199], 0.36 µM. With `Cc1nnc([C@@H]2O[C@H](CO)[C@H](O)[C@H](n3cc(-c4ccc(Br)c(F)c4)nn3)[C@H]2OCC(F)F)n1-c1cc(Cl)ccc1C(F)(F)F` [Example 325, (2R,3R,4S,5R,6S)-4-(4-(4-bromo-3-fluorophenyl)-1H-1,2,3-triazol-1-yl)-6-(4-(5-chloro-2-(trifluoromethyl)phenyl)-5-methyl-4H-1,2,4-triazol-3-yl)-5-(2,2-difluoroethoxy)-2-(hydroxymethyl)tetrahydro-2H-pyran-3-ol], the half-maximal inhibitory concentration (IC50) was found to be 0.02 µM. Regarding `COCCO[C@@H]1[C@@H](n2cc(-c3cc(F)c(F)c(F)c3)nn2)[C@@H](O)[C@@H](CO)O[C@H]1n1nncc1-c1cccc(Cl)c1` [Example 13], the IC50 worked out at 0.571 µM. On the same count and under the same terms, next, `Cc1nc2ccc(-n3nc(C(=O)O)nc3[C@H]3C[C@@H](n4cc(-c5cccc(F)c5)nn4)[C@@H](O)[C@@H](CO)O3)cc2s1` [Example 269, 5-((2R,4R,5R,6R)-4-(4-(3-fluorophenyl)-1H-1,2,3-triazol-1-yl)-5-hydroxy-6-(hydroxymethyl)tetrahydro-2H-pyran-2-yl)-1-(2-methylbenzo[d]thiazol-6-yl)-1H-1,2,4-triazole-3-carboxylic acid]: 0.33 µM. Still for that read-out and setting: next, `Cc1nc([C@@H]2O[C@H](CO)[C@H](O)[C@H](n3cc(-c4cc(F)c(F)c(F)c4)nn3)[C@H]2O)n(-c2ccc(Cl)cc2C)n1` [Example 63]: 0.85 µM; `Cc1nc2ccc(-n3c([C@H]4C[C@@H](n5cc(-c6cc(F)c(F)c(F)c6)nn5)[C@@H](O)[C@@H](CO)O4)nnc3C(F)(F)F)cc2s1` [Example 281, (2R,3R,4R,6R)-2-(hydroxymethyl)-6-(4-(2-methylbenzo[d]thiazol-6-yl)-5-(trifluoromethyl)-4H-1,2,4-triazol-3-yl)-4-(4-(3,4,5-trifluorophenyl)-1H-1,2,3-triazol-1-yl)tetrahydro-2H-pyran-3-ol]: 0.08 µM. For the compound `Cc1ccc(-n2cnnc2[C@@H]2O[C@H](CO)[C@H](O)[C@H](n3cc(-c4cc(F)c(F)c(F)c4)nn3)[C@H]2O)cc1C` [Example 77], the IC50 was determined as 0.14 µM. Still for that read-out and setting: next, `Cc1nc2ccc(-n3ncnc3[C@@H]3O[C@H](CO)[C@H](O)[C@H](n4cc(-c5ccc(F)cc5)nn4)[C@H]3O)cc2s1` [Example 224, (2R,3R,4R,5R,6S)-4-(4-(4-fluorophenyl)-1H-1,2,3-triazol-1-yl)-2-(hydroxymethyl)-6-(1-(2-methylbenzo[d]thiazol-6-yl)-1H-1,2,4-triazol-5-yl)tetrahydro-2H-pyran-3,5-diol]: 0.33 µM. Same read-out and setting: next, `OC[C@H]1O[C@@H](c2nncn2-c2ccccc2)[C@H](O)[C@@H](n2cc(-c3cc(F)c(F)c(F)c3)nn2)[C@H]1O` [Example 73, (2R,3R,4R,5R,6S)-2-(hydroxymethyl)-6-(4-phenyl-4H-1,2,4-triazol-3-yl)-4-(4-(3,4,5-trifluorophenyl)-1H-1,2,3-triazol-1-yl)tetrahydro-2H-pyran-3,5-diol]: 0.21 µM.

Still in this assay, the particulars now being: read-out: hGal3 IC50.
With `Cc1nc([C@@H]2O[C@H](CO)[C@H](O)[C@H](n3cc(-c4ccc(Cl)c(F)c4)nn3)[C@H]2O)n(-c2ccc(Cl)c(Cl)c2)n1` [Example 252], the IC50 is 0.11 µM.

As to `Cc1nc2ccc(-n3ncnc3[C@@H]3O[C@H](CO)[C@H](O)[C@H](n4cc(-c5ccc(N(C)C)c(F)c5)nn4)[C@H]3O)cc2s1` [Example 206], the IC50 was 1.54 µM. The same measure, in the same setting: next, `CO[C@@H]1[C@@H](n2cc(-c3cc(F)c(F)c(F)c3)nn2)[C@@H](O)[C@@H](CO)O[C@H]1c1nncn1-c1ccc(Cl)c(Cl)c1` [Ex 283]: 0.08 µM; `Cc1nc2ccc(-n3c(C)nnc3[C@@H]3O[C@H](CO)[C@H](O)[C@H](n4cc(-c5cc(F)c(Cl)c(F)c5)nn4)[C@H]3O)cc2s1` [Example 306]: 0.035 µM. The same measure, in the same setting: for `CCOC(=O)c1nnc([C@@H]2O[C@H](CO)[C@H](O)[C@H](n3cc(-c4cc(F)c(F)c(F)c4)nn3)[C@H]2O)n1-c1ccc2nc(C)sc2c1` [Example 275] the value was 0.06 µM; for `Cc1nc2ccc(-n3c([C@@H]4O[C@H](CO)[C@H](O)[C@H](n5cc(-c6cc(F)c(F)c(F)c6)nn5)[C@H]4O)nnc3C(F)(F)F)cc2s1` [Example 274], 0.05 µM. Regarding `Cc1nnc([C@@H]2O[C@H](CO)[C@H](O)[C@H](n3cc(-c4cc(F)c(Br)c(F)c4)nn3)[C@H]2O)n1-c1cc(Cl)cc2cccnc12` [Example 318], the IC50 was 0.011 µM. For `Cc1nc([C@@H]2O[C@H](CO)[C@H](O)[C@H](n3cc(-c4ccc(Cl)c(F)c4)nn3)[C@H]2O)n(-c2cc(C(F)(F)F)ccc2Cl)n1` [Example 255], the IC50 stood at 0.07 µM. As for `Cc1nc2ccc(-n3cnnc3[C@@H]3O[C@H](CO)[C@H](O)[C@H](n4cc(-c5ccc(Cl)c(F)c5)nn4)[C@H]3O)cc2s1` [Example 303], the IC50 came to 0.023 µM. Still for that read-out and setting: next, `N#Cc1ccc(Cl)cc1-n1cnnc1[C@@H]1O[C@H](CO)[C@H](O)[C@H](n2cc(-c3cc(F)c(Cl)c(F)c3)nn2)[C@H]1O` [Example 312]: 1.6 µM.

Staying with this assay, now noted: read-out: hGal IC50.
In the case of `Cc1nc([C@@H]2O[C@H](CO)[C@H](O)[C@H](n3cc(-c4ccc(Br)c(F)c4)nn3)[C@H]2O)n(-c2cc(Cl)cc3ncccc23)n1` [Example A17], the IC50 turned out to be 0.082 µM. `Cc1nc([C@@H]2O[C@H](CO)[C@H](O)[C@H](n3cc(-c4cc(F)c(F)c(F)c4)nn3)[C@H]2O)n(-c2ccc3nc(C(F)(F)F)sc3c2)n1` [Example A8]: the IC50 is 0.505 µM. As to `Cc1nc([C@@H]2O[C@H](CO)[C@H](O)[C@H](n3cc(-c4cc(F)c(Cl)c(F)c4)nn3)[C@H]2O)n(-c2cc(Cl)ccc2C(F)F)n1` [Example A60], the IC50 worked out at 0.036 µM. Still for that read-out and setting: next, `Cc1nc([C@@H]2O[C@H](CO)[C@H](O)[C@H](n3cc(-c4cc(F)c(Cl)c(F)c4)nn3)[C@H]2O)n(-c2cc(Cl)c(F)cc2Cl)n1` [Example A46]: 0.033 µM; `Cc1nc([C@@H]2O[C@H](CO)[C@H](O)[C@H](n3cc(-c4cc(F)c(Cl)c(Cl)c4)nn3)[C@H]2O)n(-c2ccc3ncsc3c2)n1` [Example A24]: 0.034 µM; `Cc1nc([C@@H]2O[C@H](CO)[C@H](O)[C@H](n3cc(-c4cc(F)c(Cl)c(F)c4)nn3)[C@H]2O)n(-c2cc(Cl)cc3cccnc23)n1` [Example A11]: 0.017 µM. Same read-out and setting: for `Cc1nc([C@@H]2O[C@H](CO)[C@H](O)[C@H](n3cc(-c4cc(F)c(Cl)c(F)c4)nn3)[C@H]2O)n(-c2cc(Cl)cnc2C(F)(F)F)n1` [Example A10] the value was 0.029 µM; for `Cc1nc([C@@H]2O[C@H](CO)[C@H](O)[C@H](n3cc(-c4ccc(Br)c(F)c4)nn3)[C@H]2O)n(-c2cc(Cl)cnc2C(F)(F)F)n1` [Example A71], 0.049 µM. On the same count and under the same terms, next, `Cc1nc([C@@H]2O[C@H](CO)[C@H](O)[C@H](n3cc(-c4ccc(Br)c(F)c4)nn3)[C@H]2O)n(-c2cc3sc(C)nc3cc2C(F)(F)F)n1` [Example A31]: 0.022 µM. In the case of `Cc1nc([C@@H]2O[C@H](CO)[C@H](O)[C@H](n3cc(-c4cc(F)c(Cl)c(F)c4)nn3)[C@H]2O)n(-c2cc(Cl)cc3ncccc23)n1` [Example A16], the IC50 was 0.051 µM.
